Assay results taken from paper PMC11121200 (Acta Pharmaceutica Sinica. B, 2024).

Key:
CtMaT1 = assay: HPLC initial-rate kinetics, nonlinear regression; type: biochemical, Cistanche tubulosa; details: 2 mmol/L malonyl-CoA as co-substrate, 1 mmol/L DTT, 100 mmol/L potassium phosphate pH 6.0, 30 °C
MatB [1] = target: T1, MatB (Arabidopsis thaliana, UniProt Q8H151); details: 1.5 mmol/L CoA, 3 mmol/L ATP, 5 mmol/L MgCl2, 1 mmol/L DTT, potassium phosphate pH 6.0, 30 °C, 12 h
T1 sequence (Q8H151 1-608): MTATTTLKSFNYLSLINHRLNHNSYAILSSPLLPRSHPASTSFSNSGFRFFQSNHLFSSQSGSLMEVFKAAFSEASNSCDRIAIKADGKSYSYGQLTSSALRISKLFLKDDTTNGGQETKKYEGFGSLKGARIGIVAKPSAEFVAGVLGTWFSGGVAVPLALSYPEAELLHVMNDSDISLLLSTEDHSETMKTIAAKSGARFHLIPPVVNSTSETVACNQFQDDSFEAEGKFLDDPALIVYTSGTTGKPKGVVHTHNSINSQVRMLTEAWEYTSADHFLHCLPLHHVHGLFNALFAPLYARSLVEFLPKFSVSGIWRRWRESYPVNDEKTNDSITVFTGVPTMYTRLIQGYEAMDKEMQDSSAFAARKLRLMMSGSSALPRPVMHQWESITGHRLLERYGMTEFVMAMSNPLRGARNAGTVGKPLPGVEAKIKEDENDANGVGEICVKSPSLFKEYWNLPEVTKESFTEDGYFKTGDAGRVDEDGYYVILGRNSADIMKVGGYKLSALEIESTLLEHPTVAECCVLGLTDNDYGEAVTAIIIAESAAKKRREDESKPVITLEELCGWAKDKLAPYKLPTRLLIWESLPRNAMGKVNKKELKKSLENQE

MatB [2] = target: T1, MatB; assay: HPLC detection of malonyl-CoA formed; type: biochemical; details: 1.5 mmol/L CoA, 3 mmol/L ATP, 5 mmol/L MgCl2, 1 mmol/L DTT, potassium phosphate pH 6.0, 30 °C, 12 h

Structure (SMILES) | Km (CtMaT1) | other results
OC[C@H]1O[C@@H](OCCc2ccc(O)cc2)[C@H](O)[C@@H](O)[C@@H]1O [compound 2, salidroside] | 757 ± 58.2 µM | –
CC(C(=O)O)C(=O)O [methylmalonic acid] | – | HPLC detection of methylmalonyl-CoA formed (MatB [1]): MatB could also conduct the synthesis of methyl-MLC
O=C(O)CC(=O)O [malonic acid] | – | HPLC detection of malonyl-CoA formed (MatB [2]): made directly from malonic acid in the presence of CoA, ATP, and MatB proteins
OC[C@H]1O[C@@H](Oc2cc3c(O)cc(O)cc3[o+]c2-c2ccc(O)c(O)c2)[C@H](O)[C@@H](O)[C@@H]1O [compound 1, cyanidin 3-glucoside] | 685 ± 25.3 µM | –
